# Laboratory results taken from patent US20110098180A1, “Herbicide-Resistant Plants, And Polynucleotides And Methods For Providing Same” (United States Department of Agriculture, priority 2002, published 2011).
# Tested on: Arabidopsis thaliana transformed with Hydrilla PDS constructs
# Experiment: Herbicide resistance of transformed Arabidopsis T1 seedlings
# Format: in vivo
# Source text: Binary vectors for pds expression in plants included the 1-323 by upstream of the beginning of the putative mature protien, which is assumed to encode for chloroplast signal peptide/s. pHy4ATG5 was mutagenized at the amino acid 304 of pds to replace Arginine by Histidine, Threonine, Serine, or Cysteine, using the QuickChange™ Site-Directed Mutagenesis Kit of Stratagene (La Jolla, Calif.) and the same mutagenesis primers used for p3ORF-ATG indicated in the previous section. The resulting plasmids in this case were pHy4His, pHy4Thr, pHy4Ser and pHy4Cys. A 1.8 kb fragment between the TOPO4 SpeI site and the pds SspI site containing the pds gene was cloned into pCAMBIA1303 (CAMBIA, Canberra, Australia) SpeI-Pm1I sites (SspI and PmlI are compatible) replacing the 2.5 kb gus:mgfp; the resulting plasmid was designated pPDATG1303. The same strategy was used for each of the clones containing amino acid changes, generating plasmids pPDHIS1303, pPDTHR1303, pPDSER1303 and pPDCYS1303. The selectable marker in these constructs is the hygromycin phosphotransferase gene (hptll) for resistance to hygromycin in plants.
# Arabidopsis thaliana ecotype Columbia (Col-0) was transformed with Agrobacterium using the floral dip method (Clough, S. J. and Bent, A. F. (1998) Floral dip: a simplified method for Agrobacterium-mediated transformation of Arabidopsis thaliana. The Plant Journal 16(6):735-743). Plants were grown at 21° C. with 16 h/8 h day and night until flowering and continuous light after inoculation (plants inoculated with Agrobacterium were denominated T0 plants). Selection of T1 (seeds produced by T0 plants) seedlings was performed on Petri plates with half-strength Murashige and Skoog (MS) medium (Murashige, T. and Skoog, F. (1962) A revised medium for rapid grOwth and bioassays with tobacco tissue cultures. Physiologia plantarum 15:473-497) supplemented with 1% sucrose, 0.2% phytagel and 300 μg/ml cefotaxime. […]
# DNA was extracted according to Dilworth and Frey (2000)foreign genes detected by PCR. […]
smiles,measurement,setting,value
CNc1cnn(-c2cccc(C(F)(F)F)c2)c(=O)c1Cl [Norflurazon],confirmed transformed plants resistant to the herbicide,construct pPDATG1303,1
same,confirmed transformed plants resistant to the herbicide,construct pPDSER1303,3
same,confirmed transformed plants resistant to the herbicide,construct pPDTHR1303,1
